Laboratory results: the NIST ThermoML archive (doi:10.1016/j.jct.2014.01.020)
± gives the expanded uncertainty stated by the source.

Tests used:
[1] = molar heat capacity at constant pressure; conditions: Liquid, Flow calorimetry
[2] = Liquid; for mass density: Vibrating tube method; for viscosity: 101 kPa, Concentric cylinders viscometry

C1CCCCC1 [cyclohexane]
Conditions	mass density, [2] [kg/m3]	molar heat capacity at constant pressure, [1] [J/K/mol]
293.15 K, 100 kPa	778.4 ± 0.7	154.7 ± 1.6
293.15 K, 1000 kPa	779.1 ± 0.7	–
293.15 K, 2000 kPa	779.9 ± 0.7	–
293.15 K, 5000 kPa	782.4 ± 0.7	153.8 ± 1.6
293.15 K, 10000 kPa	786.3 ± 0.7	152.5 ± 1.5
293.15 K, 15000 kPa	789.9 ± 0.7	150.5 ± 1.5
293.15 K, 20000 kPa	793.4 ± 0.7	149.7 ± 1.5
293.15 K, 25000 kPa	–	147.7 ± 1.5
303.15 K, 100 kPa	769 ± 0.7	–
303.15 K, 1000 kPa	769.8 ± 0.7	–
303.15 K, 2000 kPa	770.7 ± 0.7	–
303.15 K, 5000 kPa	773.3 ± 0.7	–
303.15 K, 10000 kPa	777.5 ± 0.7	–
303.15 K, 15000 kPa	781.3 ± 0.7	–
303.15 K, 20000 kPa	785.1 ± 0.8	–
303.15 K, 30000 kPa	792.1 ± 0.8	–
303.15 K, 40000 kPa	798.5 ± 0.8	–
313.15 K, 100 kPa	759.7 ± 0.7	–
313.15 K, 1000 kPa	760.3 ± 0.7	–
313.15 K, 2000 kPa	761.2 ± 0.7	–
313.15 K, 5000 kPa	764 ± 0.7	–
313.15 K, 10000 kPa	768.4 ± 0.7	–
313.15 K, 15000 kPa	772.6 ± 0.7	–
313.15 K, 20000 kPa	776.6 ± 0.8	–
313.15 K, 25000 kPa	–	154.6 ± 1.6
313.15 K, 30000 kPa	784.1 ± 0.8	–
313.15 K, 40000 kPa	790.9 ± 0.8	–
323.15 K, 100 kPa	750.1 ± 0.7	–
323.15 K, 1000 kPa	750.8 ± 0.7	–
323.15 K, 2000 kPa	751.8 ± 0.7	–
323.15 K, 5000 kPa	754.8 ± 0.7	–
323.15 K, 10000 kPa	759.5 ± 0.7	–
323.15 K, 15000 kPa	763.9 ± 0.7	–
323.15 K, 20000 kPa	768.2 ± 0.8	–
323.15 K, 30000 kPa	776.1 ± 0.8	–
323.15 K, 40000 kPa	783.2 ± 0.8	–
333.15 K, 100 kPa	740.3 ± 0.7	–
333.15 K, 1000 kPa	741.1 ± 0.7	–
333.15 K, 2000 kPa	742.2 ± 0.7	–
333.15 K, 5000 kPa	745.5 ± 0.7	–
333.15 K, 10000 kPa	750.5 ± 0.7	–
333.15 K, 15000 kPa	755.3 ± 0.7	–
333.15 K, 20000 kPa	759.7 ± 0.8	–
333.15 K, 30000 kPa	768.1 ± 0.8	–
333.15 K, 40000 kPa	775.6 ± 0.8	–

[2]
Conditions	viscosity [mPa·s]
293.15 K	0.98 ± 0.021
303.15 K	0.824 ± 0.018
313.15 K	0.701 ± 0.015
323.15 K	0.593 ± 0.013
333.15 K	0.522 ± 0.012
